According to ChEMBL document CHEMBL1127238, “The discovery of L-699,392, a novel potent and orally active leukotriene D4 receptor antagonist” (Bioorg Med Chem Lett, 1994):

Assays:
[1] = target: T1, Cysteinyl leukotriene receptor 1 (Cavia porcellus, UniProt Q2NNR5); test: Inhibitory activity against binding of [3H]LTD4 to Cysteinyl leukotriene D4 receptor in guinea pig lung membranes; assay type: cell membranes, Membrane
T1 sequence (Q2NNR5 whole entry): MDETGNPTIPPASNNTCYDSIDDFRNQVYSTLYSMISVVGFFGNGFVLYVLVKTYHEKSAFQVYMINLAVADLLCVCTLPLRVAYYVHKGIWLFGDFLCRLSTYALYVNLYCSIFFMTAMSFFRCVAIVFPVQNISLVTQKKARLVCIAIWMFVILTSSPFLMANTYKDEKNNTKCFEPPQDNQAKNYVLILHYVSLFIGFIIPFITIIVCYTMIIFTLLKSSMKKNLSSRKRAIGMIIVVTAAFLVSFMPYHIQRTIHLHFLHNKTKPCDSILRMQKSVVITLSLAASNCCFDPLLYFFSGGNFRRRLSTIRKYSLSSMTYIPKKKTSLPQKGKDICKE

[2] = Compound was tested for plasma clearance in rats after 5 mg/kg of intravenous dosing; assay type: ADME, organism-based; set-up: dose 5 mg/kg, route intravenous; settings: rat
[3] = Apparent bioavailability in squirrel monkey was determined; assay type: ADME, organism-based; settings: in vivo; read-out: Bioavailabiility

SMILES | IC50 [1] | clearance [2] | bioavailability [3]
C[C@H](CS[C@@H](CCc1ccccc1C(=O)c1ccccc1)c1cccc(/C=C/c2ccc3ccc(Cl)cc3n2)c1)C(=O)O | 4.3 nM | 18 mL/min/kg | 
C[C@H](CS[C@@H](CCc1ccccc1CO)c1cccc(/C=C/c2ccc3ccc(Cl)cc3n2)c1)C(=O)O | 3.1 nM | 5 mL/min/kg | 
COC(=O)c1cccc(CC[C@H](SC[C@@H](C)C(=O)O)c2cccc(/C=C/c3ccc4ccc(Cl)cc4n3)c2)c1 | 7 nM | 6 mL/min/kg | 
CC(=O)c1cccc(CC[C@H](SC[C@@H](C)C(=O)O)c2cccc(/C=C/c3ccc4ccc(Cl)cc4n3)c2)c1 | 5.9 nM | 2 mL/min/kg | 
CCC(=O)c1ccccc1CC[C@H](SC[C@@H](C)C(=O)O)c1cccc(/C=C/c2ccc3ccc(Cl)cc3n2)c1 | 3.7 nM | 13 mL/min/kg | 
CCOC(=O)c1ccccc1CC[C@H](SC[C@@H](C)C(=O)O)c1cccc(/C=C/c2ccc3ccc(Cl)cc3n2)c1 | 3.7 nM | 4.8 mL/min/kg | 

Molecules with a lower IC50 [1], results first:

IC50 [1] | clearance [2] | bioavailability [3] | SMILES
3 nM | 11 mL/min/kg | 52% | CC(=O)c1ccccc1CC[C@H](SC[C@@H](C)C(=O)O)c1cccc(/C=C/c2ccc3ccc(Cl)cc3n2)c1
2 nM | 6 mL/min/kg |  | C[C@H](CS[C@@H](CCc1ccccc1C=O)c1cccc(/C=C/c2ccc3ccc(Cl)cc3n2)c1)C(=O)O
1 nM | 33 mL/min/kg |  | C[C@H](CS[C@@H](CCc1ccccc1CC(C)(C)O)c1cccc(/C=C/c2ccc3ccc(Cl)cc3n2)c1)C(=O)O
2.1 nM | 2.5 mL/min/kg |  | C[C@H](CS[C@@H](CCc1cccc(CO)c1)c1cccc(/C=C/c2ccc3ccc(Cl)cc3n2)c1)C(=O)O
2.7 nM | 14 mL/min/kg |  | C[C@H](CS[C@@H](CCc1ccccc1C(C)(C)O)c1cccc(/C=C/c2ccc3ccc(Cl)cc3n2)c1)C(=O)O
